# Laboratory results as given in ChEMBL document CHEMBL1135231, “Syntheses and binding affinities of 6-nitroquipazine analogues for serotonin transporter. Part 2: 4-substituted 6-nitroquipazines” (Bioorg Med Chem Lett, 2002).
# Molecular target: T1, Sodium-dependent serotonin transporter (Rattus norvegicus, UniProt P31652)
# Assay: Compound was evaluated for its ability to displace [3H]citalopram binding to the rat cortical Serotonin transporter
# T1 sequence (P31652 whole entry): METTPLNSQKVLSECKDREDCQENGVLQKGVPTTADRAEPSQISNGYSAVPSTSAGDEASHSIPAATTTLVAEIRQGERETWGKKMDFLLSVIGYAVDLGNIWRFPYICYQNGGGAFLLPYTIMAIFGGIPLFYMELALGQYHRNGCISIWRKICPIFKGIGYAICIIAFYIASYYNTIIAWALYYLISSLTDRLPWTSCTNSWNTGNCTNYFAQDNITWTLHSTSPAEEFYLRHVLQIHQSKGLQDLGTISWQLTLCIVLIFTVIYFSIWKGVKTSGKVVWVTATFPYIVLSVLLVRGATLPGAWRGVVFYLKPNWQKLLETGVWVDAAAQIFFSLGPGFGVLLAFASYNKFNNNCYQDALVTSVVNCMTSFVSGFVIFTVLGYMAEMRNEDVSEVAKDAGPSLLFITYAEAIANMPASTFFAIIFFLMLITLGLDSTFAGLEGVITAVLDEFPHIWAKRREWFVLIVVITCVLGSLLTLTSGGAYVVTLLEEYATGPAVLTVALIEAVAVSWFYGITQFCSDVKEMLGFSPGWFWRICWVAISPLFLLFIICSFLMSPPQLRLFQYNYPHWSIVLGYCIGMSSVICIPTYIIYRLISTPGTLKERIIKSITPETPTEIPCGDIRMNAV
row,Structure (SMILES),Ki [nM]
1,O=CN1CCN(c2cc(Br)c3cc([N+](=O)[O-])ccc3n2)CC1,1.73

# Molecular target: T1, Sodium-dependent serotonin transporter
# Assay: Displacement of [3H]citalopram from rat cortical serotonin transporter (SERT)
row,Structure (SMILES),Ki [nM]
1,O=[N+]([O-])c1ccc2nc(N3CCNCC3)cc(N3CCCC3)c2c1,61.1
2,O=[N+]([O-])c1ccc2nc(N3CCNCC3)cc(-c3ccccc3)c2c1,60
3,O=[N+]([O-])c1ccc2nc(N3CCNCC3)cc(I)c2c1,1.73
4,O=[N+]([O-])c1ccc2nc(N3CCNCC3)cc(-c3ccco3)c2c1,5.23
5,O=[N+]([O-])c1ccc2nc(N3CCNCC3)cc(Cc3ccccc3)c2c1,127
6,C=Cc1cc(N2CCNCC2)nc2ccc([N+](=O)[O-])cc12,1.82
7,C=CCc1cc(N2CCNCC2)nc2ccc([N+](=O)[O-])cc12,1.67
8,O=[N+]([O-])c1ccc2nc(N3CCNCC3)cc(-c3cccs3)c2c1,67.2
9,O=[N+]([O-])c1ccc2nc(N3CCNCC3)cc(Br)c2c1,0.37
10,O=[N+]([O-])c1ccc2nc(N3CCNCC3)cc(Cl)c2c1,0.03
11,CN(C)Cc1ccccc1Sc1ccc(I)cc1N,0.013
